Assay results from patent US5110800A, “Derivatives of erythromycylamine” (Eli Lilly and Company, priority 1989, dated 1992).
In brackets after ≈: the same amount, converted by molar mass.

Columns and labels:
[1] = test system: Escherichia coli EC14; assay: MIC, standard agar-dilution assay; type: cell-based; conditions: agar dilution
[2] = test system: Streptococcus pyogenes C203; assay: MIC, standard agar-dilution assay; type: cell-based
[3] = test system: Streptococcus pneumoniae Park I; assay: MIC, standard agar-dilution assay; type: cell-based
[4] = test system: Haemophilus influenzae 76; assay: MIC, standard agar-dilution assay; type: cell-based; conditions: ampicillin-resistant strain
[5] = test system: Klebsiella pneumoniae X68; assay: MIC, standard agar-dilution assay; type: cell-based
[6] = test system: Staphylococcus aureus S13E; assay: MIC, standard agar-dilution assay; type: cell-based
[7] = test system: Streptococcus sp. group D 2041; assay: MIC, standard agar-dilution assay; type: cell-based; conditions: agar dilution
[8] = test system: Staphylococcus aureus X400; assay: MIC, standard agar-dilution assay; type: cell-based; conditions: methicillin-resistant strain, inducibly erythromycin-resistant
Source text: (§1) In addition to excellent in vitro activity against erythromycin-sensitive bacteria, several members of this new series have shown in vitro activity against erythromycin-resistant strains. These include strains which are inducibly-resistant to erythromycin (S. aureus V41 and X400 and S. epidermidis EPI1) and even strains which are constitutively-resistant (S. epidermidis 270).

[9] = test system: Staphylococcus epidermidis 270; assay: MIC, standard agar-dilution assay; type: cell-based; conditions: Table IV; constitutively erythromycin-resistant
Source text: as §1

[10] = test system: Staphylococcus aureus V41; assay: MIC, standard agar-dilution assay; type: cell-based; conditions: penicillin-resistant strain, inducibly erythromycin-resistant
Source text: as §1

[11] = test system: Streptococcus pneumoniae; assay: Oral ED50 against experimental infection in mice; type: in vivo; conditions: two doses, protects 50% of animals
Experimental: (§2) The new derivatives of this invention have also shown in vivo antimicrobial activity against experimental bacterial infections. When two doses of test compound were administered to mice in experimental infections, the activity observed was measured as an ED50 value [effective dose in mg/kg to protect 50% of the test animals: see Warren Wick, et al., J. Bacteriol. 81, 233-235 (1961)].

[12] = test system: Streptococcus pyogenes; assay: Oral ED50 against experimental infection in mice; type: in vivo; conditions: two doses, protects 50% of animals
Experimental: as §2

[13] = test system: Staphylococcus aureus; assay: Oral ED50 against experimental infection in mice; type: in vivo; conditions: two doses, protects 50% of animals
Experimental: as §2

[14] = test system: Staphylococcus aureus X1.1; assay: MIC, standard agar-dilution assay; type: cell-based
[15] = test system: Streptococcus sp. group D X66; assay: MIC, standard agar-dilution assay; type: cell-based
[16] = test system: Haemophilus influenzae C.L.; assay: MIC, standard agar-dilution assay; type: cell-based; conditions: ampicillin-sensitive strain
[17] = test system: Staphylococcus epidermidis 222; assay: MIC, standard agar-dilution assay; type: cell-based
[18] = test system: Staphylococcus epidermidis EPI1; assay: MIC, standard agar-dilution assay; type: cell-based; conditions: EPI1, read-out: minimal inhibitory concentration (MIC)
Source text: as §1

Molecule: Endo- and Exo-9-Deoxo-9-[(bicyclo[2.2.1]hept-2-en-5-yl-methyl)amino]erythromycin [Compound 19]
- minimal inhibitory concentration (MIC) ([1]; Table IV): 64 µg/mL
- minimal inhibitory concentration (MIC) ([2]; Table IV, agar dilution): 0.25 µg/mL
- minimal inhibitory concentration (MIC) ([3]; Table IV, agar dilution): 0.015 µg/mL
- minimal inhibitory concentration (MIC) ([4]; Table IV): 8 µg/mL
- minimal inhibitory concentration (MIC) ([5]; Table IV, agar dilution): -- (-- = >128)
- minimal inhibitory concentration (MIC) ([6]; Table IV, agar dilution): 2 µg/mL
- minimal inhibitory concentration (MIC) ([7]; Table IV): 8 µg/mL
- minimal inhibitory concentration (MIC) ([8]; Table IV): -- (-- = >128)
- minimal inhibitory concentration (MIC) [9]: -- (-- = >128)
- minimal inhibitory concentration (MIC) ([10]; Table IV): -- (-- = >128)
- Oral ED50 [11]: 25.0 mg/kg
- Oral ED50 [12]: 16.6 mg/kg
- Oral ED50 [13]: > 50 mg/kg
- minimal inhibitory concentration (MIC) ([14]; Table IV, agar dilution): 2 µg/mL
- minimal inhibitory concentration (MIC) ([15]; Table IV, agar dilution): 1 µg/mL
- minimal inhibitory concentration (MIC) ([16]; Table IV): 8 µg/mL
- minimal inhibitory concentration (MIC) ([17]; Table IV, agar dilution): 1 µg/mL

Molecule: CC[C@H]1OC(=O)[C@H](C)[C@@H](O[C@H]2C[C@@](C)(OC)[C@@H](O)[C@H](C)O2)[C@H](C)[C@@H](O[C@@H]2O[C@H](C)C[C@H](N(C)C)[C@H]2O)[C@](C)(O)C[C@@H](C)[C@H]2[C@H](C)[C@@H](OCN2C(C)CCCN(C)C)[C@]1(C)O (stereo partly shown) [Compound 63, 9-Deoxo-9-[(5-dimethylamino-2-pentyl)amino]-9,11-(N,O)-cyclic-Methylene Adduct of Erythromycin]
- MIC ([1]; Escherichia coli, EC14, Table V, read-out: minimal inhibitory concentration (MIC)): 32 µg/mL (≈ 37.2 µM)
- MIC ([2]; Streptococcus pyogenes, C203, read-out: minimal inhibitory concentration (MIC)): 0.5 µg/mL (≈ 0.581 µM)
- MIC ([3]; Streptococcus pneumoniae, read-out: minimal inhibitory concentration (MIC)): 0.5 µg/mL (≈ 0.581 µM)
- MIC ([4]; Haemophilus influenzae, 76, Table V, read-out: minimal inhibitory concentration (MIC)): 8 µg/mL (≈ 9.3 µM)
- MIC ([5]; Klebsiella pneumoniae, X68, read-out: minimal inhibitory concentration (MIC)): 128 µg/mL (≈ 149 µM)
- MIC ([6]; Staphylococcus aureus, S13E, read-out: minimal inhibitory concentration (MIC)): 8 µg/mL (≈ 9.3 µM)
- MIC ([7]; Streptococcus, Table V, read-out: minimal inhibitory concentration (MIC)): 32 µg/mL (≈ 37.2 µM)
- MIC ([8]; Staphylococcus aureus, X400, Table V, read-out: minimal inhibitory concentration (MIC)): > 128 µg/mL
- MIC [18]: > 128 µg/mL
- MIC ([10]; Staphylococcus aureus, V41, Table V, read-out: minimal inhibitory concentration (MIC)): > 128 µg/mL
- MIC ([14]; Staphylococcus aureus, X1.1, read-out: minimal inhibitory concentration (MIC)): 8 µg/mL (≈ 9.3 µM)
- MIC ([15]; Streptococcus, read-out: minimal inhibitory concentration (MIC)): 2 µg/mL (≈ 2.33 µM)
- MIC ([16]; Haemophilus influenzae, Table V, read-out: minimal inhibitory concentration (MIC)): 8 µg/mL (≈ 9.3 µM)
- MIC ([17]; Staphylococcus epidermidis, 222, read-out: minimal inhibitory concentration (MIC)): 8 µg/mL (≈ 9.3 µM)
